Counter-ions that a name gives are not always drawn. A value given as a limit tells only on which side of the number the result lay.

Experiment [1] deals with T1, Proton Pump (H^+ /K^+ ATPase) (Oryctolagus cuniculus, UniProt P27112).
T1 construct: The microsomes thus obtained were used as an enzyme source of the in vitro enzyme reaction study of proton pump; from tissue; host or cells: rabbit stomach, mucosal scrapings, microsomes (180,000 g pellet)
The experiment is described as follows: Inhibition of Proton Pump (H+/K+ ATPase) Activity, in vitro enzyme reaction (Experiment 1). The format is biochemical, New Zealand white rabbit. As to conditions: for Effect ratio: IC50 of Omeprazole / IC50 of test compound; for IC50: K+-stimulated H+/K+ ATPase activity, rabbit gastric microsomes, pH 7.2, 37° C., 15 min prereaction, 30 min reaction, read-out: IC50 of test compound, inhibition (50%) of the proton pump activity. Here is the method:
A New Zealand white rabbit was killed by blowing its head and the stomach was taken out. The contents of the stomach were removed and the stomach walls were washed with was saline. The inner wall of the stomach was scratched out with a slide glass and the cells thus obtained were homogenized in 0.25M sucrose buffer by means of a Teflon-glass homogenizer. The homogenous solution was centrifuged at 10,000 g for 10 minutes and the supernatant was further centrifuged at 20,000 g for 20 minutes. The supernatant thus obtained was centrifuged at an ultra-high speed of 180,000 g for 1 hour. The pellets precipitated were collected by discarding the supernatant and suspended in 50 mM Tris-HCl buffer having pH 7.2. The suspension was dialyzed twice with the same buffer(of 1,000 times volume) for 3 hours and stored into liquid nitrogen.
The above centrifugation and dialysis were carried out at 4° C. The microsomes thus obtained were used as an enzyme source of the in vitro enzyme reaction study of proton pump.
The inhibitory effects of proton pump activity by the compounds of the present invention were measured by the in vitro enzyme reaction study. The proton pump activity stimulated by Mg^++ was used as a negative comparative group, and the activity stimulated by Mg^++ and K^+ was used as a positive comparative group. The comparative compound was omeprazole.
Test tubes were divided into 4 groups: Group 1 as negative comparative group(n=3), Group 2 as positive comparative group(n=3), Group 3(n=5) to be administered with the compound of the present invention and Group 4(n=5) to be administered with the comparative compound. The inhibitory effects of proton pump activity of Groups 3 and 4 were measured by employing the compound prepared in Example 34 and omeprazole, respectively, each of which was dissolved in dimethylsulfoxide at 5 different concentrations.
To each of Groups 1, 2, 3 and 4, were added 0.1 ml of magnesium chloride(40 mM) dissolved in 50 mM Tris-HCl buffer (pH 7.2) and […] of the enzyme source prepared in Experiment 1-1. Then, 0.1 ml of potassium chloride(500 mM) and 0.1 ml of ammonium chloride(100 mM) dissolved in 50 mM Tris-HCl buffer(pH 7.2) were added to all groups except for Group 1.
0.1 ml of dimethylsulfoxide was added to each of Groups 1 and 2; and to Group 3 was added 0.01 ml of the solution in which the compound prepared in Example 34 was dissolved in dimethylsulfoxide at 5 different concentrations. To Group 4, 0.01 ml of the solution prepared by dissolving omprazole in dimethylsulfoxide at 5 different concentrations(37.6, 21.4, 12.2, 7.0 and 4.0 μM) was added. 50 mM Tris-HCl buffer was added thereto so as to make the total volume 0.4 ml.
Thereafter, the test tubes of each Group were placed at 37° C. for 15 minutes for the prereaction. 0.1 ml of ATP solution(33.3 mM), which was prepared by adding Tris-ATP 50 mM to Tris-HCl buffer having pH 7.2, was added until the reaction volume became 0.5 ml. The final concentrations of MgCl2, KCl, NH4 Cl, ATP, enzyme and Tris-HCl were 8 mM, 100 mM, 20 mM, 6.7 mM, 100μg/ml and 50 mM, respectively. After the reaction was carried out at 37° C. for 30 minutes, 25% cold trichloroacetic acid was added to terminate the enzyme reaction. The released inorganic phosphate was measured by an automatic analyzer(SBA 300, Gilford).
The difference between Group 1 and Group 2 represents the proton pump activity activated by K^+ only. The inhibition percentages of Groups 3 and 4 were calculated from Litchfield-wilcoxon equation[see J. Pharmacol. Exptl. Ther. 96, 99(1949)]. The concentrations of the test compounds which inhibit 50% of the proton pump activity are represented as IC50 in Table 1.

The test system of another experiment is gastric secretion. Description: Inhibition of Gastric Secretion, pylorus-ligated rats (Experiment 2). It is filed as in vivo, Sprague-Dawley rats. As to conditions: relative to omeprazole (equation III), 20 mg/kg intraduodenally, pylorus-ligated rats, 5 hours. The procedure:
In accordance with the method disclosed in Shay, H., et al., Gastroenterology 5, 43-61(1945), Experiment 2 was carried out.
Sprague-Dawley rats having a body weight of 170±10 g were divided into 3 groups(n=5) and deprived of food for 24 hours before the experiment with free access to water. Under ether anesthesia, the abdomen was incised, and the pylorus was ligated. As a comparative group, Group 1 was administered intraduodenally in a volume of 0.5 ml/200 g of 30% aqueous polyethylene glycol 400 solution. Groups 2 and 3 were administered intraduodenally with the compound of Example 34 and omeprazole, respectively, each of which was suspended in 30% aqueous polyethylene glycol 400 solution at a concentration of 20 mg/kg. After closing the abdominal cavity, the rats were placed for 5 hours and then killed by cervical dislocation. The stomach was extracted to obtain gastric juice.
The gastric juice was centrifuged at 1,000 g to remove precipitates. The amount and acidity of the gastric juice were measured. Relative volumes, relative acid concentrations and relative acid outputs of the test compounds were calculated from equations(I), (II) and (III) and the results are shown in Table 2.
(I) = the average amount of gastric juice of Group 1 - the
average amount of gastric juice of Group 2)/(the average
amount of gastric juice of Group 1 - the average amount
of gastric juice of Group 3)
Relative acid concentration
(II) = (the average acidity of Group 1 - the average
acidity of Group 2)/(the average acidity of Group 1 - the average
(III) = (the total amount of acid output of Group 1 - the
total amount of acid output of Group 2)/(the total amount of acid
output of Group 1 - the total amount of acid output of Group

T1 sequence (P27112 whole entry): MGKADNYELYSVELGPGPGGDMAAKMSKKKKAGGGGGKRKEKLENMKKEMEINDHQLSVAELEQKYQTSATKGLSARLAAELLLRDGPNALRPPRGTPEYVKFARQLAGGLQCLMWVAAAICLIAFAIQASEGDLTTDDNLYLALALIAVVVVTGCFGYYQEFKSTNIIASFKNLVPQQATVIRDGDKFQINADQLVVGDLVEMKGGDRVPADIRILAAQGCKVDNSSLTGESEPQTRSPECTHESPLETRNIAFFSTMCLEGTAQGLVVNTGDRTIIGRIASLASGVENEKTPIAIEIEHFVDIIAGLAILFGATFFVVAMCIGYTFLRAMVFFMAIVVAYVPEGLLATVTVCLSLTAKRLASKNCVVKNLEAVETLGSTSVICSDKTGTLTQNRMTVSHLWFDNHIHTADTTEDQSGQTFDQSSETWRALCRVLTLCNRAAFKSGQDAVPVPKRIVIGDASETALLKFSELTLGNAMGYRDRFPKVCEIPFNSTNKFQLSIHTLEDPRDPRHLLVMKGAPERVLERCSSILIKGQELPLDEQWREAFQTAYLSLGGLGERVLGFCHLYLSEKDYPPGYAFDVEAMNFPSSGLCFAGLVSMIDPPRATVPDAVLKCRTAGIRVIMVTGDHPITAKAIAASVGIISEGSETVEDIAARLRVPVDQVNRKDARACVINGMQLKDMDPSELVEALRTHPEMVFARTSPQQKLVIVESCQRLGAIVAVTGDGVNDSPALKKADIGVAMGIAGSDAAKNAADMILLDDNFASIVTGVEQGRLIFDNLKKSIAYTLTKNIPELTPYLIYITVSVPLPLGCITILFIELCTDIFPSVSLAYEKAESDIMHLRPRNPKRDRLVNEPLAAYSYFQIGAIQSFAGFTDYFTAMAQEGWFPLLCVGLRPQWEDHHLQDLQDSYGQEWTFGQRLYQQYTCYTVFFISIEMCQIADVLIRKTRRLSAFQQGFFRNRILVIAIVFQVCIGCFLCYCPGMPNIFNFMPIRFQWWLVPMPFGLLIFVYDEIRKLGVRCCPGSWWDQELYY
T1 sequence (P18597 whole entry partner): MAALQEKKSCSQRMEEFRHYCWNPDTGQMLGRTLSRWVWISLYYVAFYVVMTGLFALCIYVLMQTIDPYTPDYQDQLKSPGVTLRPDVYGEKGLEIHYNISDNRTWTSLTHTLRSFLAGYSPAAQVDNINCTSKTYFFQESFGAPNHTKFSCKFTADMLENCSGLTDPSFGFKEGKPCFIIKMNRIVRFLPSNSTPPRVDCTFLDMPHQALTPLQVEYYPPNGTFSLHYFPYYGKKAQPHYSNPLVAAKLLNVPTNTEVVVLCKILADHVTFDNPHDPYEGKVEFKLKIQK

As to `Cl.c1ccc(Nc2nc(N3CCc4ccccc4C3)c3ccccc3n2)cc1` [Example 18, 2-(Phenylamino)-4-(1,2,3,4-Tetrahydroisoquinoline-2-Yl)Quinazoline Hydrochloride], in experiment [1], the Effect ratio is 61.67 and the concentration for half-maximal inhibition (IC50) (as a rule, the concentration at which inhibition is half-maximal) amounted to 600 nM. In the experiment on gastric secretion, the “Relative Acid Output” value amounted to 0.29.

On to `CN(c1ccccc1)c1nc(N2CCc3ccccc3C2)c2ccccc2n1` [Example 19, 2-(N-Methylphenylamino)-4-(1,2,3,4-Tetrahydroisoquinoline-2-Yl)QuinazolineHydrochloride], for which, in experiment [1], the Effect ratio came out at 1.83 and the IC50 was 5200 nM. Also, in the experiment with gastric secretion, the “Relative Acid Output” value amounted to 0.68.

Take `CN(c1ccc(F)cc1)c1nc(N2CCc3ccccc3C2)c2ccccc2n1.Cl` [Example 20, 2-(4-Fluoro-N-Methylphenyl-Amino)-4-(1,2,3,4-Tetrahydroisoquinoline-2-Yl)Quinazoline Hydrochloride]: in experiment [1], the Effect ratio is recorded as 1.10 and the IC50 amounted to 8400 nM. Also, the “Relative Acid Output” value with gastric secretion is 0.92.

As for `Cc1ccccc1Nc1nc(N2CCc3ccccc3C2)c2ccccc2n1` [Example 21, 2-(2-Methylphenylamino)-4-(1,2,3,4-Tetrahydroisoquinoline-2-Yl)QuinazolineHydrochloride], in experiment [1], the Effect ratio is given as 6.17 and the IC50 was found to be 1200 nM. The “Relative Acid Output” value in the experiment with gastric secretion was 0.38.

On to `Cc1cc(F)ccc1Nc1nc(N2CCc3ccccc3C2)c2ccccc2n1.Cl` [Example 22, 2-(4-Fluoro-2-Methylphenyl -Amino)-4-(1,2,3,4-Tetrahydroisoquinoline-2-Yl)Quinazoline Hydrochloride], for which, in experiment [1], the Effect ratio amounted to 11.29 and the IC50 is 700 nM. Further, the “Relative Acid Output” value in the experiment on gastric secretion was found to be 0.64.

As for `Fc1ccc(Nc2nc(N3CCc4ccccc4C3)c3ccccc3n2)cc1` [Example 23, 2-(4-Fluorophenylamino)-4-(1,2,3,4-Tetrahydroisoquinoline-2-Yl)QuinazolineHydrochloride], in experiment [1], the Effect ratio stood at 4.30 and the IC50 was determined as 2000 nM. Moreover, the “Relative Acid Output” value in the experiment on gastric secretion is given as 0.44.

Take `CC1c2ccccc2CCN1c1nc(N(C)c2ccccc2)nc2ccccc12.Cl` (stereo not drawn) [Example 24, 2-(N-Methylphenylamino)-4-(1-Methyl-1,2,3,4-Tetrahydroisoquinoline-2-Yl)Quinazoline Hydrochloride]: in experiment [1], the Effect ratio is listed as ~ 1.29 and the IC50 is roughly 12500 nM. Moreover, the “Relative Acid Output” value in the experiment with gastric secretion worked out at 0.36.

`CC1c2ccccc2CCN1c1nc(Nc2ccc(F)cc2)nc2ccccc12.Cl` (stereo not drawn) [Example 25, 2-(4-Fluorophenylamino)-4-(1-Methyl-1,2,3,4-Tetrahydroisoquinoline-2-Yl)Quinazoline Hydrochloride]: in experiment [1], the Effect ratio is given as 5.88 and the IC50 worked out at 2700 nM. In the experiment on gastric secretion, the “Relative Acid Output” value turned out to be 0.50.

As for `Cc1cc(F)ccc1Nc1nc(N2CCc3ccccc3C2C)c2ccccc2n1.Cl` (stereo not drawn) [Example 26, 2-(4-Fluoro-2-Methylphenyl-Amino)-4-(1-Methyl-1,2,3,4-Tetrahydroisoquinoline-2-Yl) Quinazoline Hydrochloride], in experiment [1], the Effect ratio is 46.00 and the IC50 was found to be 400 nM. In the experiment on gastric secretion, the “Relative Acid Output” value was 0.25.

For the molecule `Cc1cc(F)ccc1Nc1nc(N2CCc3cccc4c3C2CC4)c2ccccc2n1.Cl` (stereo not drawn) [Example 27, 2-(4-Fluoro-2-Methylphenyl-Amino)-4-(1,8-Ethano-1,2,3,4-Tetrahydroisoquinoline-2-Yl) Quinazoline Hydrochloride], in experiment [1], the Effect ratio was found to be 1.97 and the IC50 was 2900 nM. Moreover, the “Relative Acid Output” value in the experiment on gastric secretion is on record as 0.30.

Take `COc1cccc2c(N3CCc4ccccc4C3)nc(Nc3ccccc3)nc12.Cl` [Example 28, 8-Methoxy-2-(phenylamino)-4-(1,2,3,4-Tetrahydroisoquinoline-2-Yl)Quinazoline Hydrochloride]: in experiment [1], the Effect ratio came to 6.92 and the IC50 is 1200 nM. In addition, in the experiment with gastric secretion, the “Relative Acid Output” value stood at 0.64.

With `COc1cccc2c(N3CCc4ccccc4C3)nc(N(C)c3ccccc3)nc12.Cl` [Example 29, 8-Methoxy-2-(N-Methylphenyl-Amino)-4-(1,2,3,4-Tetrahydroisoquinoline-2-Yl)Quinazoline Hydrochloride], in experiment [1], the Effect ratio was 1.47 and the IC50 was determined as 4900 nM. Further, the “Relative Acid Output” value with gastric secretion is listed as 0.84.

For `COc1cccc2c(N3CCc4ccccc4C3)nc(Nc3ccc(F)cc3)nc12.Cl` [Example 30, 8-Methoxy-2-(4-Fluorophenyl-Amino)-4-(1,2,3,4-Tetrahydroisoquinoline-2-Yl)Quinazoline Hydrochloride], in experiment [1], the Effect ratio came out at 3.27 and the IC50 was found to be 2200 nM. Also, the “Relative Acid Output” value with gastric secretion is recorded as 0.76.

For `COc1cccc2c(N3CCc4ccccc4C3)nc(Nc3ccc(F)cc3C)nc12.Cl` [Example 31, 8-Methoxy-2-(4-Fluoro-2-Methyl -Phenylamino)-4-(1,2,3,4-Tetrahydroisoquinoline-2-yl) Quinazoline Hydrochloride], in experiment [1], the Effect ratio came out at 5.13 and the IC50 was found to be 2000 nM. Moreover, the “Relative Acid Output” value in the experiment on gastric secretion is recorded as 0.79.

In the case of `COc1cccc2c(N3CCc4ccccc4C3)nc(N(C)c3ccc(F)cc3)nc12.Cl` [Example 32, 8-Methoxy-2-(4-Fluoro-N-Methyl-Phenylamino)-4-(1,2,3,4-Tetrahydroisoquinoline-2-Yl) Quinazoline Hydrochloride], in experiment [1], the Effect ratio is greater than 0.58 and the IC50 was greater than 16000 nM. For the same molecule, the “Relative Acid Output” value in the experiment with gastric secretion stood at 0.43.

On to `COc1cccc2c(N3CCc4ccccc4C3C)nc(Nc3ccc(F)cc3)nc12.Cl` (stereo not drawn) [Example 33, 8-Methoxy-2-(4-Fluorophenyl-Amino)-4-(1-Methyl-1,2,3,4-Tetrahydroisoquinoline-2-Yl) Quinazoline Hydrochloride], for which, in experiment [1], the Effect ratio is reported as 1.22 and the IC50 came to 2300 nM. Moreover, in the experiment on gastric secretion, the “Relative Acid Output” value turned out to be 0.79.

As for `COc1cccc2c(N3CCc4ccccc4[C@H]3C)nc(Nc3ccc(F)cc3C)nc12.Cl` [Example 35, (R)-8-Methoxy-2-(4-Fluoro-2-Methylphenylamino)-4-(1-Methyl-1,2,3,4-Tetrahydroisoquinoline-2-Yl)Quinazoline Hydrochloride], in experiment [1], the Effect ratio is 2.83 and the IC50 was 1800 nM. For the same molecule, the “Relative Acid Output” value in the experiment with gastric secretion amounted to 0.79.

Source of the values: US5686458A, “Quinazoline deriviates for treating peptic ulcer” (Yuhan Corporation, priority 1992, dated 1997).
